Among the data in PubChem BioAssay (NCI) are GI50 and TGI values, retold here.

The structures appear in SMILES notation. Several values for one entry are separate records, joined by “and”; a condition that tells them apart may be missing. Identical values can stand only once.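 Values below derive from 48-hour exposures of cells grown in 96-well plates, with endpoints linearly interpolated between the two concentrations bracketing the appropriate inhibition level. At the GI50, growth is halved. TGI: concentration producing complete growth inhibition.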

Some test systems named below: PC-3 prostate; SR leukemia; SN12C renal; HCC-2998 colon; DU-145 prostate; RPMI-8226 leukemia; LOX IMVI melanoma; UACC-257 melanoma; HL-60(TB) leukemia; COLO 205 colon.
Common to all, as to assay: growth of human tumour cells (NCI), 48 h

Take `Nc1nc2ccc([C@@H]3Nc4ccc5[nH]ncc5c4[C@H]4[C@H]5CCC(C5)[C@H]43)cc2s1`: the GI50 in the experiment with PC-3 prostate is 1.04 µM; with SR leukemia, 0.336 µM; with SN12C renal, 1.53 µM; with HCC-2998 colon, 1.75 µM; in the experiment with DU-145 prostate, 1.63 µM; in the experiment on RPMI-8226 leukemia, 1.39 µM. Besides, the GI50 is 0.935 µM with LOX IMVI melanoma, 2.12 µM in the experiment with UACC-257 melanoma, 0.345 µM in the experiment with HL-60(TB) leukemia and 1.08 µM in the experiment with COLO 205 colon. Further, the TGI was determined as 3.2 µM with PC-3 prostate; 2.72 µM in the experiment with SR leukemia; 4.12 µM in the experiment on SN12C renal; 3.76 µM in the experiment on HCC-2998 colon; 5.78 µM with DU-145 prostate; 5.3 µM in the experiment on RPMI-8226 leukemia. In addition, the TGI came to 2.54 µM with LOX IMVI melanoma, 5.46 µM in the experiment with UACC-257 melanoma, 1.37 µM in the experiment with HL-60(TB) leukemia and 2.92 µM in the experiment on COLO 205 colon.

Regarding `COC(=O)c1ccc(=O)c2nc3/c(=C/O)c(O)cc(=O)c3[nH]c12`, the GI50 was 0.525 µM with PC-3 prostate; 0.361 µM with SR leukemia; 0.44 µM in the experiment with SN12C renal; 2.94 µM in the experiment with HCC-2998 colon; 0.393 µM in the experiment on RPMI-8226 leukemia; 0.662 µM with LOX IMVI melanoma. The GI50 was 2.74 µM with UACC-257 melanoma, 0.601 µM with HL-60(TB) leukemia and 6.49 µM in the experiment on COLO 205 colon. Also, the TGI in the experiment with PC-3 prostate was 17.1 µM and 16.6 µM; in the experiment on SR leukemia, above 64.9 µM; with SN12C renal it was 20 µM and 12.8 µM; in the experiment with HCC-2998 colon, 25 µM and 18.9 µM; in the experiment on DU-145 prostate, 16.5 µM and 17.6 µM; with RPMI-8226 leukemia it was 30.7 µM and 3.93 µM. Also, the TGI in the experiment on LOX IMVI melanoma was 20.3 µM and 15.4 µM; with UACC-257 melanoma, 16.1 µM and 27.8 µM; in the experiment with HL-60(TB) leukemia, 19.3 µM; in the experiment on COLO 205 colon, above 100 µM.

Take `C=C1C(=O)O[C@H]2[C@H]1CC/C(COC(=O)C(=O)c1c[nH]c3ccc(OC)cc13)=C\CC[C@@]1(C)O[C@@H]21`: the GI50 in the experiment on PC-3 prostate was 6.08 µM; with SR leukemia, 3.29 µM; in the experiment with SN12C renal, 6.1 µM; with HCC-2998 colon, 6.29 µM; in the experiment on DU-145 prostate, 7.99 µM; with RPMI-8226 leukemia, 2.21 µM. Further, the results for the GI50 in the experiment on LOX IMVI melanoma, in the experiment with UACC-257 melanoma and with HL-60(TB) leukemia were 1.49 µM, 6.53 µM and 5.13 µM, respectively. Also, the TGI was found to be 11.1 µM in the experiment with PC-3 prostate; 29 µM in the experiment on SR leukemia; 12.2 µM with SN12C renal; 9.82 µM in the experiment with HCC-2998 colon; 17 µM in the experiment with DU-145 prostate; 10.5 µM in the experiment with RPMI-8226 leukemia. Also, the TGI was 2.35 µM in the experiment on LOX IMVI melanoma, 12.1 µM with UACC-257 melanoma, 12.5 µM with HL-60(TB) leukemia and above 20.6 µM in the experiment with COLO 205 colon.

On to `COc1c2ccccc2c(O)c2c(=O)c(C(=O)O)cn(C)c12`, for which the GI50 with PC-3 prostate, in the experiment with SR leukemia, with HCC-2998 colon, with DU-145 prostate, in the experiment on RPMI-8226 leukemia and in the experiment on LOX IMVI melanoma was above 100 µM throughout. In addition, the GI50 in the experiment with UACC-257 melanoma and in the experiment with COLO 205 colon was above 100 µM in each case. In addition, the TGI with PC-3 prostate, with SR leukemia, in the experiment on HCC-2998 colon, with DU-145 prostate, with RPMI-8226 leukemia and with LOX IMVI melanoma was above 100 µM throughout. The TGI with UACC-257 melanoma and with COLO 205 colon was above 100 µM in each case.

Consider `CC[C@@]1(O)C(=O)OCc2c1cc1n(c2=O)Cc2cc3cc(OC)ccc3nc2-1`, for which the GI50 was 0.00461 µM in the experiment on SR leukemia; 0.147 µM and 0.0656 µM with HCC-2998 colon; 0.0219 µM in the experiment with DU-145 prostate; 0.0411 µM with RPMI-8226 leukemia; 0.0125 µM in the experiment with LOX IMVI melanoma; 0.0998 µM and 0.17 µM in the experiment on UACC-257 melanoma. Besides, the GI50 in the experiment on HL-60(TB) leukemia was 0.00873 µM; in the experiment with COLO 205 colon, 0.419 µM and 0.143 µM. For the same compound, the TGI with HCC-2998 colon was 0.29 µM and 1.09 µM and 0.388 µM; with DU-145 prostate, 0.041 µM; with RPMI-8226 leukemia, 8.46 µM and 1.23 µM; in the experiment with LOX IMVI melanoma it was 0.173 µM and 0.298 µM and 0.105 µM; in the experiment with UACC-257 melanoma, 1.54 µM; with HL-60(TB) leukemia it was 0.0172 µM.

Turning to `C=C(CNCCc1ccc(O)cc1)[C@@H]1CC[C@]2(CO)CC[C@]3(C)[C@H](CC[C@@H]4[C@@]5(C)CCC(=O)C(C)(C)[C@@H]5CC[C@]43C)[C@@H]12`, the GI50 with PC-3 prostate was 1.32 µM; in the experiment with SR leukemia it was 1.3 µM; in the experiment on SN12C renal it was 1.65 µM; with HCC-2998 colon, 1.64 µM; with DU-145 prostate it was 1.77 µM; with RPMI-8226 leukemia it was 1.79 µM. For the same compound, the GI50 with LOX IMVI melanoma is 1.6 µM; in the experiment on UACC-257 melanoma it was 1.78 µM; with COLO 205 colon it was 1.73 µM. Further, the TGI came to 2.69 µM in the experiment with PC-3 prostate; 4.17 µM in the experiment with SR leukemia; 3.12 µM in the experiment with SN12C renal; 3.06 µM with HCC-2998 colon; 3.15 µM in the experiment on DU-145 prostate; 4.45 µM with RPMI-8226 leukemia. Moreover, the figures for the TGI with LOX IMVI melanoma, in the experiment on UACC-257 melanoma and in the experiment with COLO 205 colon were 2.97 µM, 3.26 µM and 3.32 µM, respectively.

With `OCCCSc1ccccc1SCCCO`, the TGI with PC-3 prostate, in the experiment on SR leukemia, in the experiment with SN12C renal, in the experiment on HCC-2998 colon, in the experiment on DU-145 prostate and in the experiment with LOX IMVI melanoma was above 100 µM each time. In addition, the TGI with UACC-257 melanoma, in the experiment on HL-60(TB) leukemia and in the experiment on COLO 205 colon was above 100 µM in each case.

`NCCNCC(O)CO` (configuration not stated): the TGI in the experiment with PC-3 prostate, with SR leukemia, in the experiment with SN12C renal, with DU-145 prostate, in the experiment on RPMI-8226 leukemia and in the experiment with LOX IMVI melanoma was above 100 µM throughout. Moreover, the TGI in the experiment with UACC-257 melanoma, in the experiment on HL-60(TB) leukemia and with COLO 205 colon was above 100 µM throughout.

`C/C=C(\C)C(=O)O[C@@H]1C(O)[C@H]2OC(COC(=O)CCC(=O)CCCCCC[C@H](CCCCC)O[C@@H]3OC(C)[C@H](OC(C)=O)C(O)[C@H]3O2)[C@H]1OC(=O)/C=C/c1ccccc1` (some centres not stated): the GI50 with PC-3 prostate was below 0.0132 µM; in the experiment with SR leukemia it was below 0.012 µM; with SN12C renal, 0.0101 µM; in the experiment with HCC-2998 colon, 1.79 µM; in the experiment on DU-145 prostate it was 0.0201 µM; in the experiment on RPMI-8226 leukemia, below 0.01 µM. In addition, the GI50 is below 0.0109 µM in the experiment with UACC-257 melanoma, 0.127 µM in the experiment with HL-60(TB) leukemia and below 0.01 µM with COLO 205 colon. Moreover, the TGI with PC-3 prostate is 16.7 µM; with SR leukemia, 3.18 µM; in the experiment with SN12C renal it was 24.1 µM; in the experiment with HCC-2998 colon, above 100 µM; in the experiment on DU-145 prostate, above 44.2 µM; in the experiment with RPMI-8226 leukemia, 9.35 µM. The TGI worked out at 1.04 µM in the experiment with UACC-257 melanoma, 18.9 µM in the experiment on HL-60(TB) leukemia and 1.79 µM in the experiment on COLO 205 colon.
